The results in this text go back to patent publication EP4745145A1, “SALT OF THIAZOLOPYRAZINE COMPOUND OR CRYSTAL THEREOF AND USE THEREOF” (Simcere Zaiming Pharmaceutical Co., Ltd., priority 2023, dated 2025).

Type in all cases: cell-based
The subject of assay [1] is POLQ-mediated MMEJ pathway. Put plainly: Inhibition of cellular MMEJ pathway (NanoLuciferase reporter in HEK293T cells). The note with it: 24 h. The method, then:
Brief introduction to experimental principle: POLQ is a key protein in the repair process of cellular MMEJ. The NanoLuciferase MMEJ repair reporter system was transferred into HEK293T cells. When the MMEJ repair pathway was normally performed in the cells, the NanoLuciferase reporter protein was correctly expressed, and the cell luminescence signal could be detected. The decrease in cell luminescence was measured using a BMG multifunctional microplate reader from BMG LABTECH to reflect the inhibition of the compound on the cellular MMEJ pathway.
Experimental methods: The test compound was diluted to different concentrations with dimethyl sulfoxide (DMSO) using an Echo 655 pipetting system and transferred to a 384-well plate. In the reaction system, the compound was serially diluted 3-fold from the final concentration of 10 µM. The final concentration of DMSO was 0.1%. HEK293T cells were collected, an MMEJ luciferase […] was transferred to the cells using a Neon transfection system, and the transfected HEK293T cells at 4000 cells/well were diluted with a DMEM medium containing 10% FBS and added to a 384-well plate (25 µL/well).
The compound inhibition rate was calculated and fitted using XLfit software to give the IC50 of the compounds. A Blank well and a DMSO well were set in the experiment.
(In general: Reporter assays use an easily measured gene product as a stand-in for the process of interest.)

Assay [2] has as its system DLD-1 parent cells. Put plainly: Inhibition of tumor cell proliferation (CTG, 7 days). The following applies: Homo sapiens, DLD-1, 168 h; 7 days incubation. The method, then: (§1) Brief introduction to experimental principle: After the compound was co-incubated with tumor cells for 7 days, the ATP in viable cells was quantified using the CTG kit from Promega to reflect the effect of the compound on tumor cell proliferation.
(§2) Experimental methods: DLD-1 parent cells or DLD-1 BRCA2 (-/-) cells were diluted with an RPMI 1640 medium containing 10% FBS and then added to a 96-well plate (90 µL/well), with the number of cells being 600/well or 1200/well, respectively, and incubated overnight in an incubator at 37 °C with 5% CO2. The test compound was diluted to different concentrations with dimethyl sulfoxide (DMSO) and then added to a 96-well plate, such that, in the reaction system, the compound was serially diluted 4-fold from the final concentration of 25 µM. The concentration range of the compound was from 25 µM to 0.0004 µM, and the final concentration of DMSO was 0.25% v/v. After incubation for 7 days, 50 µL/well of CTG was added, and the mixture was incubated at room temperature for 10 min. The luminescence (Lum) signal value was read using an Envision microplate reader, and the inhibition rate and half inhibitory concentration (IC50) were calculated.
(§3) A Blank well and a DMSO well were set in the experiment. […] Inhibition rate = 100 × (Lummax−Lumcompound)/(Lummax−Lummin)% [formula] wherein Lummax refers to the luminescence signal value of the well containing cells and 0.25% v/v DMSO, and Lumcompound refers to the luminescence signal value of the well containing the compound and cells. Lummin refers to the luminescence signal value of the well containing the medium and 0.25% v/v DMSO.

Assay [3] relates to DLD-1 BRCA2 (-/-) cells. The assay is described as above. The method, then:
as §1, §2, §3

What is called IC50 is the concentration that gives 50% inhibition.

A value given as a limit tells only on which side of the number the result lay.

As for `COc1ccc(Cl)cc1-c1cc(C)ncc1C(=O)Nc1nc2ncc(-c3ccc(C#N)cc3)nc2s1` [Compound of formula I, 4-(5-chloro-2-methoxyphenyl)-N-[6-(4-cyanophenyl)thiazolo[4,5-b]pyrazin-2-yl]-6-methylnicotinamide], in assay [1], the “inhibitory activity on the POLQ-mediated MMEJ pathway in cells” value was “strong inhibitory activity”. The IC50 in assay [2] is not below 10 µM. Further, in assay [3], the “inhibitory effect on tumor cells with BRCA2 mutation” value was “good inhibitory effect” and the selectivity entry is listed as “good selectivity”. In assay [3] (Homo sapiens, DLD-1, 168 h, 7 days incubation), this molecule yielded an IC50 of less than 0.2 µM.
